For assay [1], the target named is recombinant human PEPD (Homo sapiens (Human), UniProt P12955). The experiment in a line: PEPD substrate assay (Ala-Pro cleavage, L-alanine assay kit). The class given is biochemical. As to conditions: for IC50: 50 nM recombinant human PEPD, Ala-Pro 40 μM, 25° C.
The target in assay [2] is XPNPEP1 (Homo sapiens (Human), UniProt Q9NQW7). Description: XPNPEP1 substrate assay (H-Lys(abz)-Pro-Pro-pNA). The note with it: for IC50: XPNPEP1 3.5 nM, substrate 100 μM, 60 mins. The class given is biochemical.
XPNPEP1, sequence (Q9NQW7 whole entry): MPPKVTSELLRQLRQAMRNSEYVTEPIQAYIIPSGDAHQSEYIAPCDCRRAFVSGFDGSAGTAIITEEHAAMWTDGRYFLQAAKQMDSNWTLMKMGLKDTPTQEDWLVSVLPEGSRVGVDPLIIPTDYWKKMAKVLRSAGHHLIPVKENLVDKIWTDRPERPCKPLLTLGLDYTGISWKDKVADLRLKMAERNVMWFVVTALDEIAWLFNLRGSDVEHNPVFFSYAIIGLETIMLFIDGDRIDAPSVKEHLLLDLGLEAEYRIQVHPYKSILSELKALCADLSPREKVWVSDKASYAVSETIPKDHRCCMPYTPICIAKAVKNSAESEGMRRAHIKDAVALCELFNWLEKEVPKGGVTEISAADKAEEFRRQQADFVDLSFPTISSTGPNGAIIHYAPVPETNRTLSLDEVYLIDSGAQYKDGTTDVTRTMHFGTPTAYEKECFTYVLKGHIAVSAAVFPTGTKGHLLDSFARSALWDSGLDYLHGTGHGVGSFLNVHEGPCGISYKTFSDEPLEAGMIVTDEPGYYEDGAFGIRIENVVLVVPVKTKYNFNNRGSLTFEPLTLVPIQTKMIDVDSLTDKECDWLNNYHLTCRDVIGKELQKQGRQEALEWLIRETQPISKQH
Assay [3] has as its system MV4;11 WT cells. The experiment in a line: CellTiter-Glo cell viability, WT MV4;11 cells. The class given is cell-based. The note with it: Homo sapiens, MV4-11; 24 h, CTG. The procedure: (§1) CellTiter-Glo cell viability and CytoTox-Fluor cell death assays. Cells were plated (2,000 cells per well) in white, 384-well clear-bottom plates (Corning) using an EL406 Microplate Washer/Dispenser (BioTek) in 25 μL final volume of medium. To the cell plates were added compounds at different concentrations using a pintool (CyBio) and the plates were allowed to incubate in the incubator. After incubation for indicated times, CytoTox-Fluor reagent (Promega, G9262) was added according to the manufacturer's protocol. The assay plates were then incubated for another 30 min before fluorescence was recorded using a Cytation 5 Cell Imaging Multi-Mode Reader (BioTek). Next, CellTiter-Glo reagent (Promega, G7573) was subsequently added to the assay plates following the manufacturer's protocol. Assay plates were shaken on an orbital shaker for 2 min and incubated at 25° C. for 10 min. Luminescence was then read using a Cytation 5 Cell Imaging Multi-Mode Reader (BioTek).
A general note: In ATP-based viability assays light output follows the ATP content of the culture.

Assay [4] deals with OCI-AML2 cells. The experiment in a line: CellTiter-Glo cell viability, OCI-AML2 cells (WT, CARD8-/-). The note with it: OCI-AML2 WT vs CARD8-/-, 24 h, CTG. The class given is cell-based. Here is the method:
as §1

Assay [5] concerns MV4;11, OCI-AML2, and THP-1 cells. Description: LDH release and GSDMD cleavage immunoblot. In kind it is cell-based. The note with it: WT vs CARD8-/- cells, 20 μM, 24 h. The procedure: LDH cytotoxicity and immunoblotting assays. HEK293T cells were transiently transfected and treated with inhibitors as indicated. MV4;11, OCI AML2, THP-1, and RAW264.7 cells were plated in 12-well culture plates at 5×10^5 cells/well and treated as indicated. Supernatants were analyzed for LDH activity using the Pierce LDH Cytotoxicity Assay Kit (Life Technologies). LDH activity was quantified relative to a lysis control where cells were lysed in 80 μL of a 9% Triton X-100 solution. For immunoblotting, cells were washed 2× in PBS (pH=7.4), resuspended in PBS, and lysed by sonication. Protein concentrations were determined and normalized using the DCA Protein Assay kit (Bio-Rad). The samples were separated by SDS-PAGE, immunoblotted, and visualized using the Odyssey Imaging System (Li-Cor).
(In general: Release of lactate dehydrogenase indicates damage to the cell membrane.)

Assay [6] concerns N/TERT-1 keratinocytes. Description: Cell viability of N/TERT-1 keratinocytes (NLRP1 inflammasome). The note with it: VbP 10 μM, CQ compounds 20 μM, 24 h, CTG. In kind it is cell-based, human. Here is the method: Cell Culture. HEK293T, THP-1, RAW264.7 cells were purchased from ATCC. MV4;11, OCI-AML2 cells were purchased from DSMZ. N/TERT1 cells were a gift from the Rheinwald Lab (Dickson et al., 2000). HEK293T and RAW264.7 cells were grown in Dulbecco's Modified Eagle's Medium (DMEM) with L-glutamine and 10% fetal bovine serum (FBS). N/TERT1 cells were grown in Keratinocyte serum free medium (KSFM) supplemented with 1× penicillin/streptomycin, bovine pituitary extract (25 μg/ml) and epidermal growth factor (EGF) (0.2 ng/ml). All other cell lines were grown in Roswell Park Memorial Institute (RPMI) medium 1640 with L-glutamine and 10% fetal bovine serum (FBS). All cells were grown at 37° C. in a 5% CO2 atmosphere incubator. Cell lines were regularly tested for mycoplasma using the MycoAlert™ Mycoplasma Detection Kit (Lonza).
as §1

recombinant human PEPD, sequence (P12955 whole entry): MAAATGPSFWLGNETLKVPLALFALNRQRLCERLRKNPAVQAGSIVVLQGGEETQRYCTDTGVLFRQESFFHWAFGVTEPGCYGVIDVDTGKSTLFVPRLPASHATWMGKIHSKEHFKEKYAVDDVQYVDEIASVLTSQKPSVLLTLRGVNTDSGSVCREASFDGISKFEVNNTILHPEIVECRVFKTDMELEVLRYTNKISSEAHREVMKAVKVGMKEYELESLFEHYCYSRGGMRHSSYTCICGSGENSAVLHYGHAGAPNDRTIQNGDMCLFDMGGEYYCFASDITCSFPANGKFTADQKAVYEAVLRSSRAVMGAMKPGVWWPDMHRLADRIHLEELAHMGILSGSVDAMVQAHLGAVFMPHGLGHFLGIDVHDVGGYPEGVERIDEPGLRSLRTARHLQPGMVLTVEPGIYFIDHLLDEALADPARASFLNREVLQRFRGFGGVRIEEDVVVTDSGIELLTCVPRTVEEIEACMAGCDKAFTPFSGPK

A word on the IC50: it is the concentration needed to halve the response being measured. With `COC(=O)[C@H](CC(C)C)NC(=O)[C@@H]1CCCN1C(=O)[C@@H](O)[C@H](N)CC(C)C` [CQ80, Methyl ((2S,3R)-3-amino-2-hydroxy-5-methylhexanoyl)-L-prolyl-L-leucinate], the IC50 in assay [1] was 0.91 µM; in assay [2], 43 µM; in assay [3], 0.27 µM. Further, the cell death result in assay [4] is “induced cell death in WT, but not CARD8−/−”. Further, the “LDH release and GSDMD cleavage” value in assay [5] is “induced lactate dehydrogenase (LDH) release and GSDMD cleavage”. Also, the “cell death in N/TERT-1 keratinocytes” value in assay [6] is on record as “Only VbP induced cell death”.
`COC(=O)[C@@H]1CCCN1C(=O)[C@@H](O)[C@H](N)CC(C)C` [CQ31]: in assay [1], the “PEPD inhibition (in words)” value is “inhibited PEPD and XPNPEP1 inhibitors similarly”; the IC50 was 0.67 µM. Moreover, in assay [2], the “XPNPEP1 inhibition (in words)” value was “inhibited PEPD and XPNPEP1 inhibitors similarly”; the midpoint of inhibition, the IC50, lay at 122 µM. Besides, in assay [3], the IC50 stood at 3.8 µM. Further, the cell death result in assay [4] was “induced cell death in WT, but not CARD8−/−”. Besides, the “LDH release and GSDMD cleavage” value in assay [5] was “induced lactate dehydrogenase (LDH) release and GSDMD cleavage”. Further, the “cell death in N/TERT-1 keratinocytes” value in assay [6] is on record as “Only VbP induced cell death”.

(Values after US20250368624A1, “M24B AMINOPEPTIDASE INHIBITORS FOR CARD8 INFLAMMASOME ACTIVATION” (Memorial Sloan-Kettering Cancer Center, priority 2022, published 2025).)
